Test results published in a melting point compilation (Tetko et al.; mined from patent text by program, amines drawn as free bases though some values may be those of a salt).

Row | Structure (SMILES) | melting point [°C]
1 | O=C(c1cc(N2CCCCC2)ccn1)N(O)CCCc1ccccc1 | 125 to 130
2 | O=S(=O)(CC=C(c1ccccc1)c1ccccc1)c1ccccc1 | 106
3 | O=c1cc(-c2ccc(Cl)cc2)sc(N2CCOCC2)c1 | 202 to 204
4 | C[C@H](NC(=O)OCc1ccccc1)C(=O)N[C@@H](Cc1ccccc1)C(=O)OCc1ccccc1 | 118 to 119
5 | O=C1c2cccc(NCCc3ccc(O)cc3)c2C(=O)c2c(NCCc3ccc(O)cc3)cccc21 | 181 to 182
6 | COc1cc2c(cc1O)C1Cc3c(Cl)cc(OC)c(O)c3CN1CC2 (stereo not given) | 136 to 138
7 | COc1ccc2c(c1)COCc1cc(OC)c(OC)c(OC)c1-2 | 151 to 153
8 | COc1ccc(-c2ccc(Cl)nn2)c(OCC(O)CNC(C)C)c1 (stereo not given) | 128 to 129
9 | CCCC(C)(c1ccc(Oc2ccc([N+](=O)[O-])cc2)cc1)c1ccc(Oc2ccc([N+](=O)[O-])cc2)cc1 | 151 to 152
10 | O[C@@H]1CN=C(c2cccc(Cl)c2)O[C@H]1c1ccccc1 (racemic) | 100
11 | CCO[C@@H]1[C@@H](OC)[C@H](C)O[C@@H](ON=Cc2ccc(C#Cc3ccc(OC(F)(F)F)cc3)cc2)[C@@H]1OC | 82 to 87
12 | COc1ccccc1NC(=O)Nc1ccc(C2CCN(C(=O)Nc3ccc(OCC(O)CO)cc3Cl)CC2)cc1 (stereo not given) | 158 to 161
13 | O=C1CC2(c3ccccc3)CCCC=C2C(=O)N1 (stereo not given) | 241 to 243
14 | CN(CC(O)[C@H](Cc1ccccc1)NC(=O)c1ccccc1)C(=O)N1CCC[C@H]1C(=O)O (stereo not given in full) | 108 to 117
15 | CN1c2ccc(C=C(c3ccccc3)c3ccccc3)cc2S(=O)(=O)c2cc(C=C(c3ccccc3)c3ccccc3)ccc21 | 246 to 252
16 | O=[N+]([O-])c1cc2nc(Cl)n(C3OC(CO)C(O)C3O)c2cc1[N+](=O)[O-] (stereo not given) | 132 to 135
17 | COc1ccc(C2CCN(C(=O)Nc3ccc4cc(CN5CCCC5)ccc4c3)CC2)cc1 | 194 to 196
18 | Cn1nc(O)c(C(F)F)c1Cl | 122 to 123
19 | Nc1ncc(-c2cccc3ccccc23)c(N)n1 | 171 to 173
20 | CCCCCCCCOc1ccc(C(=O)Oc2ccc3c(c2)C(C)c2cc(O)ccc2-3)cc1 (stereo not given) | 140 to 143
21 | O=C1c2ccccc2C(=O)N1c1cccc(Br)c1 | 176 to 179
22 | O=C(c1ccccc1)c1cc(-c2ccncc2)sc1-c1ccncc1 | 168 to 170
23 | Cc1ccc(CN2C(=O)C(C)Oc3c(C(=O)NC4CN5CCC4CC5)cc(Cl)cc32)cc1 (stereo not given) | 156
24 | COCC1CN(c2ccc(C3CCCCC3)c([N+](=O)[O-])c2)C(=O)O1 (racemic) | 105 to 106

Row | Structure (SMILES) | melting point [°C]
25 | COc1ccc([N+](=O)[O-])cc1C(O)OC (stereo not given) | 147 to 148
26 | O=C(Nc1ccccc1)NC1CCN2CCc3ccccc3C2C1 (stereo not given) | 210
27 | C=Cc1ccc(C(=O)Oc2ccc(S(=O)(=O)Nc3ccccc3)cc2)cc1 | 59 to 60
28 | O=CC(CC(=O)O)NC(=O)[C@@H]1CCCN1C(=O)c1nc(CCc2ccccc2)c[nH]1 (stereo not given in full) | 102 to 104
29 | O=C(Nc1ccc(C(F)(F)F)cc1)OCC1(COC(=O)Nc2ccc(C(F)(F)F)cc2)CSc2ccccc2C1=O | 76 to 82
30 | COc1ccccc1Nc1cc(C(=O)Nc2ccccc2)ccc1OC | 155 to 156
31 | COc1ccc2c(c1)C13CCN(C)C(C2)C1(O)C=CC(=O)C3 (stereo not given) | 213 to 215
32 | O=C(N[C@H](Cc1ccc(F)cc1)[C@@H](O)c1ccc(F)cc1)C1CCCCC1 (racemic) | 203 to 204
33 | COc1ccc(C2CNC(=O)C2)cc1C1CCCC1 (stereo not given) | 139
34 | O=[N+]([O-])c1ccc(Cl)c(NC(=S)NCCO)c1 | 158
35 | CC1CCN(C2(c3ccc(C#CC(=O)Nc4ccc(-c5ccc(Cl)cc5)cc4)cc3)CC2)CC1 | 128 to 129
36 | COc1ccc(-c2sc(N)c(C(=O)c3ccc(Cl)cc3)c2CN(C2CCCCC2)C2CCCCC2)cc1 | 178 to 182
37 | N#Cc1ccc(N(c2ccccc2)n2ccnc2)cc1 | 162
38 | C#CCCn1nnc2cc3c(=O)n(C(C)Cn4ncnn4)nnc3cc2c1=O (stereo not given) | 185 to 188
39 | NC(=O)Cc1ccc(OCC(O)CN2CCCC(Cn3c(=O)[nH]c4cc(Cl)c(Cl)cc43)C2)cc1 (stereo not given) | 148
40 | OCC(O)COCc1nnc2n1-c1ccc(Cl)cc1C(c1ccccc1)=NC2 (stereo not given) | 130 to 134
41 | c1ccc(-n2c(Cn3ccnc3)nc3cccnc32)cc1 | 146 to 148
42 | CC(c1oc2ccc(Br)cc2c(=O)c1-c1ccccc1)n1cnc2c(N)ncnc21 (stereo not given) | 230 to 231
43 | O=S(=O)(c1ccc(F)c(C(F)(F)F)c1)N1CCC(Nc2nc(Nc3cccc(C(F)(F)F)c3)nc(OCC(F)(F)F)n2)CC1 | 250 to 252
44 | CCOCCOc1ccc(C(O)CNC(C)CCc2ccccc2)cc1C(=O)OC (stereo not given) | 100 to 101
45 | CN1C2CCC1CN(C(=O)c1ccco1)C2 | 106
46 | Clc1ccc(OCc2ccccc2)c(C=Cc2ccccn2)c1 | 105 to 106
47 | N#Cc1c(Cl)nc(OCC(F)(F)F)nc1N1CCc2ccccc2CC1 | 165 to 167

Results, then the molecule that gave them:

Row | melting point [°C] | Structure (SMILES)
48 | 162 to 164 | CN(C)C=Nc1nc(=O)n(C(=O)OCC(C)(C)C)cc1F
49 | 121 to 123 | CC(C)Cc1ccc(C(C)C(=O)Oc2ccc(C(N)=S)cc2)cc1 (stereo not given)
50 | > 300 | Cc1nn(-c2ccccn2)c2[nH]c3ccc(S(C)(=O)=O)cc3c(=O)c12
51 | 158 | CCC1CCC(C)N(C(=O)CN(C(=O)CNC(=O)Nc2cccc(C)c2)c2ccccc2)C1 (stereo not given)
52 | 58 to 59 | CC(C)(C)c1c(Cl)nc(Cl)nc1Cl
53 | 87 to 88 | COc1cc(C)c(C(=O)c2c(OC)ccc(Br)c2Cl)c(OC)c1OC
54 | 74 to 76 | CCOC(=O)c1nc(-c2ccc(OC)cc2)oc1C
55 | 104 to 114 | CC(C)(C)C(=O)OCn1cnc2ccc(CBr)cc2c1=O
56 | 135 to 140 | CCCn1c(=O)c2c(n(Cc3ccccc3)c1=O)NN=C(NC(C)=O)S2
57 | 91 to 92 | Cn1c(Cl)c([N+](=O)[O-])c(=O)n(C)c1=O
58 | 175 to 179 | CC(=O)NC[C@H]1CN(c2ccc(N3CCC(=CC4(C#N)CC4)CC3)c(F)c2)C(=O)O1
59 | 130 to 132 | CCCc1nc(-c2ncn3c2COC(=O)c2c(Cl)cccc2-3)no1
60 | 205 to 207 | Cc1nc(-c2ccccc2)[nH]c(=O)c1C
61 | 162 | CCOC(=O)c1ccoc1Cn1c(NC2CCN(C(=O)OCC)CC2)nc2ccccc21
62 | 134 to 137 | O=C1C2=C(CCCC2)C(=O)N1c1cc(OCC2=CCCSC2)c(Cl)cc1F
63 | 130 to 132 | CC(C)OCCNc1ccc(C(=O)N2CCN(CCc3ccc(Cl)cc3)CC2)cc1
64 | 182 to 186 | CC(=O)OC1(O)C(C(C)(C)C)=CC(C(=O)c2ccccc2O)=CC1C(C)(C)C (stereo not given)
65 | 144 to 146 | C[C@@H](n1cnc2cc(Cl)ccc2c1=O)[C@](O)(Cn1cncn1)c1ccc(Cl)cc1Cl
66 | 197 to 199 | O=C1NC(=O)C2(N1)C(=O)N(Cc1ccc(Br)cc1F)c1c(C(F)(F)F)cccc12 (stereo not given)
67 | 67 to 69 | CCC(=O)NCC1CC1c1cccc2nnsc12 (stereo not given)
68 | 251 | COc1cc(OC)c2c(=O)[nH]c(-c3ccc(CCC(=O)O)cc3)nc2c1
69 | 158 to 159 | CCOCc1nc2c(N)nc3cc(-c4ccccc4)cnc3c2n1CC(C)(C)O
70 | 119 to 120 | C=COCCN1C(=O)CN(c2ccccc2)C1=O
71 | 195 to 196 | NS(=O)(=O)c1cc2c(c(Cl)c1Cl)OC(CCl)C2 (stereo not given)

Row | melting point [°C] | Structure (SMILES)
72 | 138 | Cc1c(C(=O)N(C)N2CC=CCC2)nn(-c2ccc(Cl)cc2Cl)c1-c1ccc(Cl)cc1
73 | 133 to 134 | COC(=O)c1c(C=O)n(C)c2ccc(OC)cc12
74 | 166 to 170 | CCOC(=O)c1cc(=O)c2c3c(ccc2o1)C(=O)CC(C(=O)OC)=N3
75 | 146 to 149 | C[Si](C)(C)CCCNC(=O)n1cc(F)c(=O)[nH]c1=O
76 | 236 to 238 | CN1CC(CO)OC1=C(C#N)C=C1Nc2ccccc2C1=O (stereo not given)
77 | 84 to 85 | COc1ccc(S(=O)(=O)c2ccnc(C)c2C)cc1
78 | 108 to 110 | CCCCCCCCCCc1nnn(CC(=O)Nc2c(C(C)C)cccc2C(C)C)n1
79 | 82 to 83 | CCCc1nn(-c2ccc(C(F)(F)F)cn2)cc1CCCOc1cccc(C(C)(C)C(=O)O)c1
80 | 216 to 218 | Cc1ccc(C(=O)NC(CC(C)C)C(=O)O)c(SSc2cc(C)ccc2C(=O)NC(CC(C)C)C(=O)O)c1 (stereo not given)
81 | 229 | COc1cc(C(=O)c2ncc3c(OC)cccn23)ccc1N
82 | 75.4 to 75.9 | CCOC(=O)/C=C/c1ccc(OCCOC2CC2)cc1Oc1ncc(C(F)(F)F)cc1Cl
83 | 189 | COc1ccc(C(OCC2OC(n3cnc4c(NC(=O)c5ccccc5)ncnc43)C(O)C2O[Si](C)(C)C(C)(C)C)(c2ccccc2)c2ccccc2)cc1 (stereo not given)
84 | 135 | Cc1ccc2c(=O)nc(-c3cccc(CCC(=O)OC(C)(C)C)n3)sc2c1
85 | 155 | CN1C(=O)C(Br)=C(c2cn(C(=O)OC(C)(C)C)c3ccc(OCc4ccccc4)cc23)C1=O
86 | 188 to 190 | COC(=O)c1c[nH]c(-c2ccc(OC)cc2)n1
87 | 120 to 122 | CCOC(=O)C(Cc1cccc2cccnc12)(NC=O)C(=O)OCC
88 | 160 | CCn1nc(C(C)C)c2c1C(=O)NCC(c1ccccc1)=N2
89 | 217 to 218 | Cc1csc(Cc2ccc(NC(=O)/C=C/c3cnn(C)c3-c3ccc(F)cc3)cc2)n1
90 | 211 to 214 | On1c(C(F)(F)F)nc2c(OCc3ccccc3)cc(Br)cc21
91 | 77 to 78 | CCCCCCCCc1cc2c(cc1C(C)=O)C(C)(C)CCS2(=O)=O
92 | 175 | CCCS(=O)c1cccc(-c2nc(=O)c3ccccc3s2)n1 (stereo not given)
93 | 97 to 98 | CCOC(=O)CCc1cn(-c2ccccc2)nc1OCc1ccc(OCc2nc(-c3ccco3)oc2C)c(OC)c1
94 | 83 to 84 | COC(=O)CC1(C)C(=O)N(C)c2ccc(OC)cc21 (stereo not given)
95 | 196 to 197 | CCn1c(=O)ccc2cnc(Nc3ccc(OC)cc3)nc21
